Experimental data as given in patent US12077503B2, “Substituted cyclic amides and their use as herbicides” (FMC CORPORATION, priority 2015, dated 2024).

Legend:
Assay type in all cases: in vivo
[1] = tested on: ryegrass, Italian (Italian ryegrass, Lolium multiflorum); test: Test A preemergence; details: Lolium multiflorum, pre-emergence, 240 h; for pest or weed control at 125 g/ha: 125 g ai/ha, visual injury rating after approximately 10 d, read-out: Ryegrass, Italian plant response rating (0 to 100 scale, 0 is no effect, 100 is complete control)
Procedure, shortened: (§1)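 Each rating is a visual injury score from 0 to 100 given about 10 d after treatment, judged against untreated controls kept alongside in the greenhouse. In loam soil–sand blend, seeds got a preemergence directed soil spray, while postemergence plants were 2 to 10 cm tall at spraying.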

[2] = tested on: giant foxtail (Setaria faberii); test: Test A preemergence; details: Setaria faberi, pre-emergence, 240 h; for pest or weed control at 125 g/ha: 125 g ai/ha, visual injury rating after approximately 10 d, read-out: Foxtail, Giant plant response rating (0 to 100 scale, 0 is no effect, 100 is complete control)
Procedure, shortened: as §1

Kochia (Kochia scoparia) [3] = test: Test A preemergence; details: Bassia scoparia, pre-emergence, 240 h; for pest or weed control at 125 g/ha: 125 g ai/ha, visual injury rating after approximately 10 d, read-out: Kochia plant response rating (0 to 100 scale, 0 is no effect, 100 is complete control)
Procedure, shortened: as §1

[4] = tested on: pigweed (Amaranthus retroflexus); test: Test A preemergence; details: Amaranthus retroflexus, pre-emergence, 240 h; for pest or weed control at 125 g/ha: 125 g ai/ha, visual injury rating after approximately 10 d, read-out: Pigweed plant response rating (0 to 100 scale, 0 is no effect, 100 is complete control)
[5] = tested on: ragweed (common ragweed, Ambrosia elatior); test: Test A preemergence; details: Ambrosia artemisiifolia, pre-emergence, 240 h; for pest or weed control at 125 g/ha: 125 g ai/ha, visual injury rating after approximately 10 d, read-out: Ragweed plant response rating (0 to 100 scale, 0 is no effect, 100 is complete control)
Procedure, shortened: as §1

[6] = tested on: barnyardgrass (Echinochloa crus-galli); test: Test A preemergence; details: Echinochloa crus-galli, pre-emergence, 240 h; for pest or weed control at 125 g/ha: 125 g ai/ha, visual injury rating after approximately 10 d, read-out: Barnyardgrass plant response rating (0 to 100 scale, 0 is no effect, 100 is complete control)
Procedure, shortened: as §1

[7] = tested on: sedge, umbrella (small-flower umbrella sedge, Cyperus difformis); test: Test B flooded paddy test; details: Cyperus difformis, Flood, 250 g ai/ha; scale of 0 to 100 where 0 is no effect and 100 is complete control; read-out: Sedge, Umbrella plant response rating
Procedure, shortened: (§2)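 Compound goes directly into floodwater once pots are flooded 3 cm above soil, targeting plants at two leaves; the water depth is then held for the test duration. Plants sit 13–15 d in a greenhouse and are rated visually, 100 denoting complete control.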

rice (Oryra sativa) = test: Test B flooded paddy test; details: Oryza sativa, Flood, 250 g ai/ha; scale of 0 to 100 where 0 is no effect and 100 is complete control; read-out: Rice plant response rating
Procedure, shortened: as §2

[8] = tested on: ducksalad (Heteranthera limosa); test: Test B flooded paddy test; details: Heteranthera limosa, Flood, 250 g ai/ha; scale of 0 to 100 where 0 is no effect and 100 is complete control; read-out: Ducksalad plant response rating
Procedure, shortened: as §2

[9] = tested on: barnyardgrass (Echinochloa crus-galli); test: Test B flooded paddy test; details: Echinochloa crus-galli, Flood, 250 g ai/ha; scale of 0 to 100 where 0 is no effect and 100 is complete control; read-out: Barnyardgrass plant response rating
Procedure, shortened: as §2

[10] = tested on: ryegrass, Italian (Italian ryegrass, Lolium multiflorum); test: Test A postemergence; details: Lolium multiflorum, post-emergence, 240 h, Postemergence, read-out: Plant response rating, Ryegrass, Italian; for pest or weed control at 125 g/ha: 125 g ai/ha, visual injury after approximately 10 d, 0 to 100 scale where 0 is no effect and 100 is complete control
Procedure, shortened: as §1

[11] = tested on: giant foxtail (Setaria faberii); test: Test A postemergence; details: Setaria faberi, post-emergence, 240 h, Postemergence, read-out: Plant response rating, Foxtail, Giant; for pest or weed control at 125 g/ha: 125 g ai/ha, visual injury after approximately 10 d, 0 to 100 scale where 0 is no effect and 100 is complete control
Procedure, shortened: as §1

[12] = tested on: wheat (Triticum aestivum); test: Test A postemergence; details: Triticum aestivum, post-emergence, 240 h, Postemergence, read-out: Plant response rating, Wheat; for plant injury at 125 g/ha: 125 g ai/ha, visual injury after approximately 10 d, 0 to 100 scale where 0 is no effect and 100 is complete control
Procedure, shortened: as §1

corn (Zea mays) = test: Test A postemergence; details: Zea mays, post-emergence, 240 h, Postemergence; for Corn plant response rating (crop injury, 0 = no effect, 100 = complete kill) at 125 g/ha: 125 g ai/ha, visual injury after approximately 10 d, 0 to 100 scale where 0 is no effect and 100 is complete control
Procedure, shortened: as §1

Kochia (Kochia scoparia) [13] = test: Test A postemergence; details: Bassia scoparia, post-emergence, 240 h, Postemergence, read-out: Plant response rating, Kochia; for pest or weed control at 125 g/ha: 125 g ai/ha, visual injury after approximately 10 d, 0 to 100 scale where 0 is no effect and 100 is complete control
Procedure, shortened: as §1

[14] = tested on: blackgrass (Alopecurus myosuroides); test: Test A postemergence; details: Alopecurus myosuroides, post-emergence, 240 h, Postemergence, read-out: Plant response rating, Blackgrass; for pest or weed control at 125 g/ha: 125 g ai/ha, visual injury after approximately 10 d, 0 to 100 scale where 0 is no effect and 100 is complete control
Procedure, shortened: as §1

[15] = tested on: pigweed (Amaranthus retroflexus); test: Test A postemergence; details: Amaranthus retroflexus, post-emergence, 240 h, Postemergence, read-out: Plant response rating, Pigweed; for pest or weed control at 125 g/ha: 125 g ai/ha, visual injury after approximately 10 d, 0 to 100 scale where 0 is no effect and 100 is complete control
Procedure, shortened: as §1

[16] = tested on: Galium (catchweed bedstraw, Galium aparine); test: Test A postemergence; details: Galium, post-emergence, 240 h, Postemergence, read-out: Plant response rating, Galium; for pest or weed control at 125 g/ha: 125 g ai/ha, visual injury after approximately 10 d, 0 to 100 scale where 0 is no effect and 100 is complete control
Procedure, shortened: as §1

[17] = tested on: ragweed (common ragweed, Ambrosia elatior); test: Test A postemergence; details: Ambrosia artemisiifolia, post-emergence, 240 h, Postemergence, read-out: Plant response rating, Ragweed; for pest or weed control at 125 g/ha: 125 g ai/ha, visual injury after approximately 10 d, 0 to 100 scale where 0 is no effect and 100 is complete control
Procedure, shortened: as §1

[18] = tested on: barnyardgrass (Echinochloa crus-galli); test: Test A postemergence; details: Echinochloa crus-galli, post-emergence, 240 h, Postemergence, read-out: Plant response rating, Barnyardgrass; for pest or weed control at 125 g/ha: 125 g ai/ha, visual injury after approximately 10 d, 0 to 100 scale where 0 is no effect and 100 is complete control
Procedure, shortened: as §1

[19] = 31 g ai/ha, visual injury after approx. 10 d, 0 to 100 scale, 0 no effect, 100 complete control

Structure (SMILES) | pest or weed control at 125 g/ha ([1]; Preemergence) | pest or weed control at 125 g/ha ([2]; Preemergence) | pest or weed control at 125 g/ha (Kochia (Kochia scoparia) [3]; Preemergence) | pest or weed control at 125 g/ha ([4]; Preemergence) | pest or weed control at 125 g/ha ([5]; Preemergence) | pest or weed control at 125 g/ha ([6]; Preemergence) | pest or weed control at 250 g/ha [7] | pest or weed control at 250 g/ha (rice (Oryra sativa)) | pest or weed control at 250 g/ha [8] | pest or weed control at 250 g/ha [9] | pest or weed control at 125 g/ha [10] | pest or weed control at 125 g/ha [11] | plant injury at 125 g/ha [12] | Corn plant response rating (crop injury, 0 = no effect, 100 = complete kill) at 125 g/ha (corn (Zea mays)) | pest or weed control at 125 g/ha (Kochia (Kochia scoparia) [13]) | pest or weed control at 125 g/ha [14] | pest or weed control at 125 g/ha [15] | pest or weed control at 125 g/ha [16] | pest or weed control at 125 g/ha [17] | pest or weed control at 125 g/ha [18] | also measured
O=C1NC[C@H](c2csc(C(F)(F)F)c2)[C@H]1C(=O)Nc1cccc(F)c1F [Compound 957] | 0% | 20% | 30% | 20% | 0% | 70% | 0% | 0% | 100% | 30% | 20% | 0% | 0% | 0% | 20% | 20% | 0% | 40% | 0% | 80% | pest or weed control at 500 g/ha ([1]; 500 g ai/ha, preemergence, visual injury rating about 10 d after treatment, 0 to 100 scale (0 no effect, 100 complete control), read-out: Ryegrass, Italian plant response rating): 40%; pest or weed control at 500 g/ha ([2]; 500 g ai/ha, preemergence, visual injury rating about 10 d after treatment, 0 to 100 scale (0 no effect, 100 complete control), read-out: Foxtail, Giant plant response rating): 70%; pest or weed control at 500 g/ha (Kochia (Kochia scoparia) [3]; 500 g ai/ha, preemergence, visual injury rating about 10 d after treatment, 0 to 100 scale (0 no effect, 100 complete control), read-out: Kochia plant response rating): 80%; pest or weed control at 500 g/ha ([4]; 500 g ai/ha, preemergence, visual injury rating about 10 d after treatment, 0 to 100 scale (0 no effect, 100 complete control), read-out: Pigweed plant response rating): 20%; pest or weed control at 500 g/ha ([5]; 500 g ai/ha, preemergence, visual injury rating about 10 d after treatment, 0 to 100 scale (0 no effect, 100 complete control), read-out: Ragweed plant response rating): 30%; pest or weed control at 500 g/ha ([6]; 500 g ai/ha, preemergence, visual injury rating about 10 d after treatment, 0 to 100 scale (0 no effect, 100 complete control), read-out: Barnyardgrass plant response rating): 100%
Cc1oncc1NC(=O)[C@H]1C(=O)N(C)C[C@@H]1c1cc(F)cc(F)c1 [Compound 970] | 0% | 80% | 0% | 0% | 0% | 0% | 0% | 0% | 0% | 0% | 0% | 0% | 0% | 0% | 0% | 0% | 0% | 0% | 0% | 0% | pest or weed control at 31 g/ha ([1]; Preemergence, 31 g ai/ha, 0 to 100 scale (0 no effect, 100 complete control), read-out: Plant response rating, Ryegrass, Italian): 0%; pest or weed control at 31 g/ha ([2]; Preemergence, 31 g ai/ha, 0 to 100 scale (0 no effect, 100 complete control), read-out: Plant response rating, Foxtail, Giant): 20%; pest or weed control at 31 g/ha (Kochia (Kochia scoparia) [3]; Preemergence, 31 g ai/ha, 0 to 100 scale (0 no effect, 100 complete control), read-out: Plant response rating, Kochia): 0%; pest or weed control at 31 g/ha ([4]; Preemergence, 31 g ai/ha, 0 to 100 scale (0 no effect, 100 complete control), read-out: Plant response rating, Pigweed): 0%; pest or weed control at 31 g/ha ([5]; Preemergence, 31 g ai/ha, 0 to 100 scale (0 no effect, 100 complete control), read-out: Plant response rating, Ragweed): 0%; pest or weed control at 31 g/ha ([6]; Preemergence, 31 g ai/ha, 0 to 100 scale (0 no effect, 100 complete control), read-out: Plant response rating, Barnyardgrass): 0%; pest or weed control at 31 g/ha [10, 19]: 0%; pest or weed control at 31 g/ha [11, 19]: 0%; plant injury at 31 g/ha [12, 19]: 0%; Corn plant response rating (crop injury, 0 = no effect, 100 = complete kill) at 31 g/ha (corn (Zea mays); [19]): 0%; pest or weed control at 31 g/ha (Kochia (Kochia scoparia) [13]; [19]): 0%; pest or weed control at 31 g/ha [14, 19]: 0%; pest or weed control at 31 g/ha [15, 19]: 0%; pest or weed control at 31 g/ha [16, 19]: 0%; pest or weed control at 31 g/ha [17, 19]: 0%; pest or weed control at 31 g/ha [18, 19]: 0%
